Data from patent EP4711366A1, “PYRIMIDO MACROHETEROCYCLIC COMPOUND AS WEE1-YES DUAL-TARGET INHIBITOR AND USE THEREOF” (Mindrank AI Ltd., priority 2023, dated 2024).

Key:
[1] = system: Human ovarian cancer OVCAR-3 cells; experiment: In vivo efficacy study against OVCAR-3 tumors (subcutaneous tumor-bearing model); design: species or system BALB/c nude mice; details: for Relative tumor inhibition (%) Day 28 / Relative tumor volume Day 28: PO
Procedure: (§1) Human ovarian cancer OVCAR-3 cells were subcultured and expanded in an RPMI-1640 culture medium containing 20% FBS and 0.01 mg/mL bovine insulin. BALB/c nude mice aged 6-8 weeks were taken and each subcutaneously injected with 5 × 10^6 cells to establish a tumor-bearing model. The tumor volume was monitored, and when the tumor volume reached about 150 mm^3, the animals were randomized into 5 groups according to body weight and tumor volume. The animals were given, by oral gavage, the vehicle or compounds to be tested (ZN-c3 and IE) once daily for a total of 28 days. During the period of administration, the tumor volume and the animal body weight were measured twice a week, and the animals' states were observed daily. At the endpoint, the animals were euthanized with carbon dioxide, and the subcutaneous tumors were isolated and weighed.
(§2) The data calculation formulae are shown below: The tumor volume (TV) was calculated using the formula 1/2×axb^2, where a and b represent the length and width measurements of the tumor, respectively.
(§3) The tumor growth inhibition rate (%TGITV) was calculated using the formula (1 - TVT/TVC) × 100%, where TVc represents the average tumor volume of the negative control group, and TVT represents the average tumor volume of the treatment group.
(§4) The relative tumor volume (RTV) was calculated using the formula Vt/V0, where V0 represents the tumor volume at the time of grouping, and Vt represents the tumor volume at each measurement.

[2] = system: A427 human lung cancer cells; experiment: In vivo efficacy study against A427 tumors (subcutaneous tumor-bearing model); design: species or system BALB/c nude mice; details: for Relative tumor inhibition rate (%) Day 28 / Relative tumor volume Day 28: PO
Description: as §1, with “A427 human lung” for “Human ovarian”, “cancer” for “cancer OVCAR-3”, “MEM” for “RPMI-1640”, “10% FBS.” for “20% FBS and 0.01 mg/mL bovine insulin.”
as §2, §3, §4

A427 cells = experiment: Tumor cell proliferation inhibitory activity assay (CCK-8); assay type: cell-based, Human; details: for IC50: Homo sapiens, A-427, 72 h compound incubation, CCK-8
Procedure: Human lung cancer A427 cells are cancer cells reported to be sensitive to wee1 inhibitors. In this assay, the anti-cancer effects of the compounds of the present disclosure were verified by assessing the activity of the test substances in inhibiting A427 cell proliferation.
A427 cells were cultured according to the cell culture instructions, and cells in the logarithmic growth phase were collected, counted, resuspended in a complete culture medium, and inoculated into a 96-well plate at a cell concentration of 100 µL/3000 cells/well. The cells were incubated in an incubator at 37 °C with 100% relative humidity and 5% CO2 for 24 h.
The compounds to be tested were dissolved in DMSO and diluted 4-fold with a culture medium from 10 µM to 10 concentration gradients.
The culture medium waste was pipetted off, and 100 µL of the formulated culture medium of the compound to be tested was added to each well. The cells were incubated in an incubator at 37 °C with 100% relative humidity and 5% CO2 for 72 h.
The plate was taken out, the CCK-8 reagent was added at 10 µL/well, and the plate was incubated in an incubator at 37 °C for 2-4 h.
The cell growth inhibition rates of the drugs were calculated using the following formula: Cell growth inhibition rate% = [(Ac−As)/(Ac−Ab)] × 100% [formula] • As: the OA of the samples (cells + CCK-8 + compounds to be tested) • Ac: the OA of the normal growth cell control (cells + CCK-8) • Ab: the OA of the blank control (culture medium + CCK-8)
IC50 curve fitting was performed using the software Graphpad Prism 6 and the calculation formula XY-analysis/Nonlinear regression(curve fit)/Dose response-Inhibition/log(inhibitor)vs. response-Variable slope(four parameters), and the IC50 values were calculated. Table 1. Data analysis and results for some representative compounds

YES1 kinase = YES1 kinase (Homo sapiens, UniProt P07947); experiment: YES1 protein kinase inhibitory activity assay (HTRF); assay type: biochemical; details: for IC50: HTRF, YES1 kinase, ATP 10 µM
Procedure: In this experiment, the capability of the compound MRANK-106 of the present disclosure to inhibit kinase activity was assessed by an HTRF method using a drug screening system based on the YES1 kinase.
Table 3-1. Information about reagents and consumables
The enzymatic activity conditions and HTRF system formulation are shown in Table 3-3; the experimental conditions for the kinase activity assay are shown in Table 3-4. Table 3-3. HTRF system formulation
Table 3-4. The experimental conditions for the kinase activity assay
The test compound MRANK-106 was dissolved in DMSO, and the solution was vortexed and shaken for thorough mixing. The solution was serially diluted 3-fold with DMSO, with the initial concentration being 503 nM.
① A 2× ATP/substrate solution and a 2× kinase solution were formulated using a kinase reaction buffer.
② 50 nL of the compound dilution was transferred to a 384 detection plate using Echo 655. After centrifugation, 2.5 µL of a 2× kinase solution was added to the 384 detection plate. The plate was centrifuged at 1000 rpm for 1 min and incubated at 25 °C for 10 min.
② 2.5 µL of the 2× substrate and ATP solution was added to the 384 detection plate, and the plate was centrifuged at 1000 rpm for 1 min and incubated at 25 °C for 60 min.
④ A 2× XL665 and antibody detection reagent was formulated using a detection buffer.
⑤ 5 µL of a kinase detection reagent was added to the detection plate, and the plate was incubated at 25 °C. The plate was centrifuged at 1000 rpm for 1 min and incubated at 25 °C for 1 h.
⑥ The fluorescence signals at 620 nm (Cryptate) and 665 nm (XL665) were read using a BMG high-throughput drug-screening multi-mode microplate reader.
With the reading of the negative control set as an inhibition rate of 0% and the reading of the positive control set as an inhibition rate of 100%, the inhibition rate of each test solution was calculated using the following formula: [formula] • Datapositive control: the average of the positive control well values • Datanegative control : the average of the negative control well values
The IC50 (half maximal inhibitory concentration) of the compound was obtained using the following nonlinear fitting formulas: Y = Bottom + (Top−Bottom)/(1+10^(∧)((LogIC50−X)*HillSlope)) [formula] • X: the log value of the compound concentration • Y: the inhibition rate (% inh) of the compound
The Z' factor calculation equation: Z′ = 1−3(SDmin+SDmax)/(AVEmax−AVEmin) [formula] where: • Min is the positive control Data value, and Max is the negative control DMSO Data value; • SD stands for standard deviation, and AVE stands for average.

Sequence of YES1 kinase (P07947 whole entry): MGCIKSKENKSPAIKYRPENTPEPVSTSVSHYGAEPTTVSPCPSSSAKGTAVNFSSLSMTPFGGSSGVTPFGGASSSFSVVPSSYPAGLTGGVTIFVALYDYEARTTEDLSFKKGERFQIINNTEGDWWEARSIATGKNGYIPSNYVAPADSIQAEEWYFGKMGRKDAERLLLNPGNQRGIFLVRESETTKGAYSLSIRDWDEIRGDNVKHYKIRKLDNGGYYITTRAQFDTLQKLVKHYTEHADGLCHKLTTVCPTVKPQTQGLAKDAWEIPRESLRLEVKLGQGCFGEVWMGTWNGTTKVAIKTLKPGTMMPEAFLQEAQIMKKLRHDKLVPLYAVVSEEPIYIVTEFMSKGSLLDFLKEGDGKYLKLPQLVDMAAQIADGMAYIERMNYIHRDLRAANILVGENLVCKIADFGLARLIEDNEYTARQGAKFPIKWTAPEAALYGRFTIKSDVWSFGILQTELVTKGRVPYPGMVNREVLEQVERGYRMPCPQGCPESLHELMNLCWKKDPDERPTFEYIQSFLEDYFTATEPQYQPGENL

SMILES	Relative tumor inhibition (%) Day 28 ([1]; 20 mg/kg, QD × 28) [%]	Relative tumor volume Day 28 ([1]; 20 mg/kg, QD × 28)	Relative tumor inhibition (%) Day 28 ([1]; 40 mg/kg, QD × 28) [%]	Relative tumor volume Day 28 ([1]; 40 mg/kg, QD × 28)	Relative tumor inhibition (%) Day 28 ([1]; 80/60 mg/kg, QD × 28) [%]	Relative tumor volume Day 28 ([1]; 80/60 mg/kg, QD × 28)	activity in inhibiting tumor growth in the OVCAR-3 tumor model compared with ZN-c3 ([1]; comparison in words)	Relative tumor inhibition rate (%) Day 28 ([2]; 30mg/kg, QD×28) [%]	Relative tumor volume Day 28 ([2]; 30mg/kg, QD×28)	Relative tumor inhibition rate (%) Day 28 ([2]; 80/60 mg/kg, QD × 28) [%]	Relative tumor volume Day 28 ([2]; 80/60 mg/kg, QD × 28)	activity in inhibiting tumor growth in the A427 tumor model compared with ZN-c3 ([2]; comparison in words)	IC50 (A427 cells) [nM]	activity in inhibiting cancer cell proliferation compared with reference compound Debio 0123 or ZN-c3 (A427 cells; comparison in words)	IC50 (YES1 kinase) [nM]	inhibition of the Yes target (in words) (YES1 kinase; summary statement on the assay results)	Relative tumor inhibition (%) Day 28 ([1]; 100mg/kg, QD×28) [%]	Relative tumor volume Day 28 ([1]; 100mg/kg, QD×28)	Relative tumor inhibition rate (%) Day 28 ([2]; 80mg/kg, QD×28) [%]	Relative tumor volume Day 28 ([2]; 80mg/kg, QD×28)
Cc1cc(Nc2ncc3c(=O)n4n(c3n2)-c2cccc(n2)[C@](C)(O)CCC=CC4)ccc1OC1CCN(C)CC1 (stereo in doubt) [Compound IE, (R,Z)-12-hydroxy-12-methyl-2-((3-methyl-4-((1-methylpiperidin-4-yl)oxy)phenyl)amino)-7,10,11,12-tetrahydro-5H-13,17-(azeno)pyrimido[4',5':3,4]pyrazolo[1,2-a] [1,2]diazacyclotridecin-5-one]	40.51	3.16	81.11	0.94	92.69	0.38	significantly better activity than ZN-c3	60.81	2.41	99.75	0.02	higher activity than the reference molecule ZN-c3	13	several times to several dozen times higher	3.05	strongly inhibited				
C=CCn1c(=O)c2cnc(Nc3ccc(N4CCN(C)CC4)cc3)nc2n1-c1ccc2c(n1)C(O)(CC)CC2 (stereo not drawn) [ZN-c3, reference compound]								16.17	5.03				129		> 500		61.10	2.01	48.93	3.12
